Values joined by “and” are separate entries in the source; they are usually repeats but may differ in a detail not shown here. Equal entries are not always repeated. Where two headings read alike, the source gives them in different places.
Assays:
Assay type in all cases: cell-based
S. Typhimurium [1] = assay: Bacterial membrane potential assay with DiSC3(5); conditions: mid-log cells in LB with PMB [0.5 μg/mL]; corrected for quenching by D66; JD1 [70 μM]
Description: (§1) FIG. 3A-F. D66 rapidly perturbs the bacterial cytoplasmic membrane with minor disruption of barrier function. Mid-log phase S. Typhimurium cells grown in LB with 0.5 μg/mL PMB were used for all experiments. A) Cell membrane potential was monitored with the fluorescent dye DiSC3 (5). Cells were treated at time 0 with DMSO, JD1 [70 μM], or D66. Data were normalized to DMSO at time 0 and corrected for the quenching effect of D66 (FIG. 6A, B) B) Cell membrane permeability was monitored by PI fluorescence. Cells were treated at time 0 with DMSO, SDS [0.005%] or D66. Samples were processed at the time points shown. A one-way ANOVA with a Dunnet's multiple comparison test, * P<0.005. C-F) Growth curves and kill-curves of cells treated at time 0 with either DMSO or D66. Culture aliquots were monitored for OD600 (C, E) or plated for enumeration of CFU (D, F). Data are presented as fold change. Mean and SEM of three biological replicates with technical triplicates are shown in all panels.
Bacterial Membrane potential assays: Membrane potential was measured using the potentiometric fluorescent probe DiSC3 (5) (Invitrogen). Mid-log phase cells were diluted to an OD600 of 0.4. […] Plates were monitored (ex650/em680 nm) on a BioTek Synergy H1 plate reader. After baseline fluorescence was recorded, compound was added to the desired final concentration and measurements were recorded for an additional 30 minutes. […]

S. Typhimurium [2] = assay: Growth curves and kill curves; conditions: outer-membrane perturbing conditions, D66 at 2x MIC, LB or MHB, 18 hours
Description: as §1
Growth curves and kill curves: Mid-log phase cultures were sampled at time 0 and then compound or vehicle control (DMSO) was added. Cultures were incubated at 37° C. with agitation. At the time intervals indicated, aliquots were monitored for OD600 and plated for CFU enumeration. Data for OD600 and CFU/mL were normalized to time 0.

[3] = system: S. Typhimurium SL1344 or 14028 in RAW 264.7 cells; assay: CFU assay in infected RAW 264.7 macrophages; conditions: for IC50: Salmonella enterica, TYPHIMURIUM
Description: FIG. 1A-D. D66 is a small molecule that prevents S. Typhimurium replication and/or survival in macrophages. A). Structure of D66. B) RAW264.7 macrophage-like cells were infected with S. Typhimurium harboring a chromosomal sifB: : gfp reporter, treated with DMSO or D66 at two hours after infection, and monitored for bacterial accumulation (GFP+Macrophage Area) over 16 hours using the SAFIRE (Screen for Anti-infectives using Fluorescence microscopy of Intracellular Enterobacteriaceae) assay. The IC50 value is indicated. Mean and SD of biological duplicates with technical duplicates across 9 dilutions of D66. C, D) CFU assays were performed with RAW264.7 or HeLa cells infected with S. Typhimurium SL1344 or 14028 for two hours and treated for 16 hours with DMSO or 1.5-fold dilutions of D66, prior to lysis and plating for CFU. Symbols on the Y-axes are the CFU value from DMSO-treated samples. The IC50 values are indicated. Mean and SEMs of biological triplicates with technical duplicates across 8 dilutions of D66.
CFU assays were performed with RAW 264.7 cells seeded as above or with Hela cells (ATCC CCL-2) seeded at 1x10^4 cells per 96-well. Cells were infected as described above with either S. Typhimurium SL1344 or 14028, as indicated at an approximate MOI of 30 bacteria per RAW 264.7 cell and 150 bacteria per HeLa cell. Plates were centrifuged and gentamicin treated as above. At 18 hours after infection, wells were washed twice with PBS and lysed with 30 μL 0.1% Triton X-100 in PBS for five minutes. Lysed cells were plated to L-agar and enumerated for CFU.

E. coli (K-12) = assay: Minimum inhibitory concentration determination in broth; conditions: for MIC50: Escherichia coli
Description: (§2) Bacterial Strains: S. Typhimurium (SL1344), S. Typhimurium (14028s, ATCC), S. Typhimurium ΔacrAB (ALR1257), E. coli (K-12 derivative BW25113 (wild-type)), E. coli K-12 AtolC (JP313 delta tolC; also called AD3644 and JLD1285).
(§3) Minimum inhibitory concentration determination: Overnight LB-grown cultures were diluted in LB or MHB to an optical density (OD600) of 0.01 and distributed into polystyrene 96-well flat-bottom plates (Greiner, 655185). […] The final DMSO concentration was at or below 2%. Where indicated, PMB [0.5 μg/mL] was added prior to D66. Plates were grown at 37° C. with shaking and OD600 was monitored (BioTek Synergy H1 or BioTek Eon). MICs were defined as the concentration at which 95% of growth was inhibited (OD600).

S. Typhimurium ΔacrAB = assay: as above; conditions: for MIC50: Salmonella enterica, TYPHIMURIUM
Description: as §2, §3

staphylococcal biofilm = assay: Staphylococcal biofilm formation; conditions: 18 hours in TSB, subinhibitory concentrations
Description: Biofilm formation was monitored after 18 hours in TSB with subinhibitory concentrations of DMSO, rifampin (1x MIC95=0.05 μg/mL), vancomycin (1x MIC95=1 μg/mL), or D66 (1x MIC95=130 μM). A-D) Crystal violet staining for accumulated biofilm mass measured at A595. Mean and
SEM of three biological replicates performed with technical triplicates. E-F). Biofilms were stained with Syto 9 (live cells) and PI (damaged/dead cells) and imaged with confocal fluorescent microscopy. Volume of live, dead, and total cell volume was calculated (positive volume=positive voxel; 1 voxel=0.0367 μm3). Asterisks indicate P≤0.05 as determined by one-way ANOVA compared to DMSO. Mean and SDs derived from a minimum of four fields of view each from two biological replicates.

O=C(Nc1cc(Cl)cc(Cl)c1)N1CCCN(Cc2ccccc2)CC1 [D66]
DiSC3(5) fluorescence (membrane voltage) (S. Typhimurium [1]): rapidly increased the fluorescence of DiSC3 (5) in a dose-dependent manner | absorbance and CFU of bacteria (cell lysis) (S. Typhimurium [2]): did not reduce the absorbance nor the CFU of bacteria | IC50 ([3]; RAW264.7, 16 h, S. Typhimurium 14028 in macrophages, treated 16 hours, read-out: CFU IC50): 4.9 µM | IC50 ([3]; RAW264.7, 16 h, S. Typhimurium SL1344 in macrophages, treated 16 hours, read-out: CFU IC50): 7.7 µM | IC50 ([3]; RAW264.7, as quoted for dose selection, read-out: IC50 of D66 against S. Typhimurium in macrophages): ~7.8 µM | CFU reduction ([3]; macrophages): > 1000 fold | MIC50 (E. coli (K-12); LB, read-out: MIC50 in LB): > 150 µM and > 57 µg/mL | MIC50 (E. coli (K-12); MHB, read-out: MIC50 in MHB): > 150 µM | cMIC95 in LB (E. coli (K-12); LB): >150 µM | cMIC95 in MHB (E. coli (K-12); MHB): >150 µM | cMIC95 in LB (S. Typhimurium ΔacrAB; S. Typhimurium ΔacrAB, LB): 142 µM | cMIC95 in MHB (S. Typhimurium ΔacrAB; S. Typhimurium ΔacrAB, MHB): 116 µM | MIC50 (S. Typhimurium ΔacrAB; read-out: MIC50 in LB): 128 µM and 48 µg/mL | MIC50 (S. Typhimurium ΔacrAB; read-out: MIC50 in MHB): 81 ± 6 µM | staphylococcal biofilm formation (staphylococcal biofilm): inhibits staphylococcal biofilm formation
